{
  "source": "ChEMBL document CHEMBL5360532",
  "about": "“Current scenario of quinolone hybrids with potential antibacterial activity against ESKAPE pathogens” (Eur J Med Chem, 2023)",
  "assay_type_in_all_cases": "functional",
  "key": {"Enterobacter cloacae [1]": {"tested_on": "Enterobacter cloacae", "experiment": "Antibacterial activity against multi drug resistant Enterobacter cloacae clinical isolate 121187 assessed as bacterial growth inhibition measured after 18 hrs by broth microdilution assay"}, "[2]": {"tested_on": "Mycobacterium tuberculosis", "experiment": "Antimycobacterial activity against extensive drug Mycobacterium tuberculosis assessed as bacterial growth inhibition by LJ slant assay"}, "Pseudomonas aeruginosa [3]": {"tested_on": "Pseudomonas aeruginosa", "experiment": "Antibacterial activity against clinical isolate multi drug resistant Pseudomonas aeruginosa PA262-101856 assessed as bacterial growth inhibition measured after 18 hrs by broth microdilution assay"}, "Pseudomonas aeruginosa [4]": {"tested_on": "Pseudomonas aeruginosa", "experiment": "Antibacterial activity against clinical isolate multi drug resistant Pseudomonas aeruginosa PA259-96918 assessed as bacterial growth inhibition measured after 18 hrs by broth microdilution assay"}, "Pseudomonas aeruginosa [5]": {"tested_on": "Pseudomonas aeruginosa", "experiment": "Antibacterial activity against multi drug resistant Pseudomonas aeruginosa clinical isolate 100036 assessed as bacterial growth inhibition measured after 18 hrs by broth microdilution assay"}, "Enterobacter cloacae [6]": {"tested_on": "Enterobacter cloacae", "experiment": "Antibacterial activity against multi drug resistant Enterobacter cloacae clinical isolate 118564 assessed as bacterial growth inhibition measured after 18 hrs by broth microdilution assay"}, "Pseudomonas aeruginosa [7]": {"tested_on": "Pseudomonas aeruginosa", "experiment": "Antibacterial activity against clinical isolate multi drug resistant Pseudomonas aeruginosa PA260-97103 assessed as bacterial growth inhibition measured after 18 hrs by broth microdilution assay"}, "Klebsiella pneumoniae [8]": {"tested_on": "Klebsiella pneumoniae", "experiment": "Antibacterial activity against multi drug resistant Klebsiella pneumoniae clinical isolate 113250 assessed as bacterial growth inhibition measured after 18 hrs by broth microdilution assay"}, "Klebsiella pneumoniae [9]": {"tested_on": "Klebsiella pneumoniae", "experiment": "Antibacterial activity against multi drug resistant Klebsiella pneumoniae clinical isolate 116381 assessed as bacterial growth inhibition measured after 18 hrs by broth microdilution assay"}, "Enterobacter cloacae [10]": {"tested_on": "Enterobacter cloacae", "experiment": "Antibacterial activity against multi drug resistant Enterobacter cloacae clinical isolate 117029 assessed as bacterial growth inhibition measured after 18 hrs by broth microdilution assay"}, "Acinetobacter baumannii [11]": {"tested_on": "Acinetobacter baumannii", "experiment": "Antibacterial activity against clinical isolate multi drug resistant Acinetobacter baumannii AB027 assessed as bacterial growth inhibition measured after 18 hrs by broth microdilution assay"}, "Acinetobacter baumannii [12]": {"tested_on": "Acinetobacter baumannii", "experiment": "Antibacterial activity against multi drug resistant Acinetobacter baumannii clinical isolate 92247 assessed as bacterial growth inhibition measured after 18 hrs by broth microdilution assay"}, "Acinetobacter baumannii [13]": {"tested_on": "Acinetobacter baumannii", "experiment": "Antibacterial activity against clinical isolate multi drug resistant Acinetobacter baumannii LAC-4 assessed as bacterial growth inhibition measured after 18 hrs by broth microdilution assay"}, "Escherichia coli [14]": {"tested_on": "Escherichia coli", "experiment": "Antibacterial activity against multi drug resistant Escherichia coli clinical isolate 107115 assessed as bacterial growth inhibition measured after 18 hrs by broth microdilution assay"}, "Escherichia coli [15]": {"tested_on": "Escherichia coli", "experiment": "Antibacterial activity against multi drug resistant Escherichia coli clinical isolate 94393 assessed as bacterial growth inhibition measured after 18 hrs by broth microdilution assay"}, "Klebsiella pneumoniae [16]": {"tested_on": "Klebsiella pneumoniae", "experiment": "Antibacterial activity against multi drug resistant Klebsiella pneumoniae clinical isolate 113254 assessed as bacterial growth inhibition measured after 18 hrs by broth microdilution assay"}, "Pseudomonas aeruginosa [17]": {"tested_on": "Pseudomonas aeruginosa", "experiment": "Antibacterial activity against clinical isolate multi drug resistant Pseudomonas aeruginosa PA264-104354 assessed as bacterial growth inhibition measured after 18 hrs by broth microdilution assay"}, "Acinetobacter baumannii [18]": {"tested_on": "Acinetobacter baumannii", "experiment": "Antibacterial activity against clinical isolate multi drug resistant Acinetobacter baumannii AB031 assessed as bacterial growth inhibition measured after 18 hrs by broth microdilution assay"}, "Escherichia coli [19]": {"tested_on": "Escherichia coli", "experiment": "Antibacterial activity against multi drug resistant Escherichia coli clinical isolate 94474 assessed as bacterial growth inhibition measured after 18 hrs by broth microdilution assay"}, "[20]": {"tested_on": "Mycobacterium tuberculosis", "experiment": "Antimycobacterial activity against multidrug Mycobacterium tuberculosis assessed as bacterial growth inhibition by LJ slant assay"}, "Escherichia coli [21]": {"tested_on": "Escherichia coli", "experiment": "Antibacterial activity Escherichia coli ATCC 25922 assessed as bacterial growth inhibition by broth microdilution assay"}, "Staphylococcus aureus [22]": {"tested_on": "Staphylococcus aureus", "experiment": "Antibacterial activity Staphylococcus aureus ATCC 25923 assessed as bacterial growth inhibition by broth microdilution assay"}, "Enterococcus faecalis": {"tested_on": "Enterococcus faecalis", "experiment": "Antibacterial activity Enterococcus faecalis assessed as bacterial growth inhibition measured after 24 hrs by broth microdilution assay"}, "Pseudomonas aeruginosa [23]": {"tested_on": "Pseudomonas aeruginosa", "experiment": "Antibacterial activity Pseudomonas aeruginosa assessed as bacterial growth inhibition measured after 24 hrs by broth microdilution assay"}, "Escherichia coli [24]": {"tested_on": "Escherichia coli", "experiment": "Antibacterial activity Escherichia coli assessed as bacterial growth inhibition measured after 24 hrs by broth microdilution assay"}, "Staphylococcus aureus [25]": {"tested_on": "Staphylococcus aureus", "experiment": "Antibacterial activity Staphylococcus aureus assessed as bacterial growth inhibition measured after 24 hrs by broth microdilution assay"}, "Pseudomonas aeruginosa [26]": {"tested_on": "Pseudomonas aeruginosa", "experiment": "Antibacterial activity against Pseudomonas aeruginosa assessed as bacterial growth inhibition by two fold serial dilution assay"}, "Staphylococcus aureus [27]": {"tested_on": "Staphylococcus aureus", "experiment": "Antibacterial activity against methicillin resistant Staphylococcus aureus assessed as bacterial growth inhibition by two fold serial dilution assay"}},
  "data": [
    {"smiles": "NC[C@@H]1O[C@@H](O[C@@H]2[C@@H](OCCCCCCCN3CCN(c4cc5c(cc4F)c(=O)c(C(=O)O)cn5C4CC4)CC3)[C@H](O[C@@H]3O[C@@H](CO)[C@H](O)[C@@H](N)[C@@H]3O)[C@@H](N)C[C@H]2N)[C@@H](N)C[C@H]1O", "values": [
      {"measurement": "MIC", "setting": "Enterobacter cloacae [1]", "value": "≥ 16", "unit": "µg/mL"},
      {"measurement": "MIC", "setting": "[2]", "value": "≥ 16", "unit": "µg/mL"},
      {"measurement": "MIC", "setting": "Pseudomonas aeruginosa [3]", "value": "≥ 16", "unit": "µg/mL"},
      {"measurement": "MIC", "setting": "Pseudomonas aeruginosa [4]", "value": "≥ 16", "unit": "µg/mL"},
      {"measurement": "MIC", "setting": "Pseudomonas aeruginosa [5]", "value": "≥ 16", "unit": "µg/mL"},
      {"measurement": "MIC", "setting": "Enterobacter cloacae [6]", "value": "≥ 16", "unit": "µg/mL"},
      {"measurement": "MIC", "setting": "Pseudomonas aeruginosa [7]", "value": "≥ 16", "unit": "µg/mL"},
      {"measurement": "MIC", "setting": "Klebsiella pneumoniae [8]", "value": "≥ 16", "unit": "µg/mL"},
      {"measurement": "MIC", "setting": "Klebsiella pneumoniae [9]", "value": "≥ 16", "unit": "µg/mL"},
      {"measurement": "MIC", "setting": "Enterobacter cloacae [10]", "value": "≥ 16", "unit": "µg/mL"},
      {"measurement": "MIC", "setting": "Acinetobacter baumannii [11]", "value": "≥ 16", "unit": "µg/mL"},
      {"measurement": "MIC", "setting": "Acinetobacter baumannii [12]", "value": "≥ 16", "unit": "µg/mL"},
      {"measurement": "MIC", "setting": "Acinetobacter baumannii [13]", "value": "≥ 16", "unit": "µg/mL"},
      {"measurement": "MIC", "setting": "Escherichia coli [14]", "value": "≥ 16", "unit": "µg/mL"},
      {"measurement": "MIC", "setting": "Escherichia coli [15]", "value": "≥ 16", "unit": "µg/mL"},
      {"measurement": "MIC", "setting": "Klebsiella pneumoniae [16]", "value": "≥ 16", "unit": "µg/mL"},
      {"measurement": "MIC", "setting": "Pseudomonas aeruginosa [17]", "value": "≥ 16", "unit": "µg/mL"},
      {"measurement": "MIC", "setting": "Acinetobacter baumannii [18]", "value": "≥ 16", "unit": "µg/mL"},
      {"measurement": "MIC", "setting": "Escherichia coli [19]", "value": "≥ 16", "unit": "µg/mL"},
      {"measurement": "MIC", "setting": "[20]", "value": "≥ 16", "unit": "µg/mL"}
    ]},
    {"smiles": "C[C@@H](NC(=O)C(Cl)Cl)C(=O)N1CCN(c2cc3c(cc2F)c(=O)c(C(=O)O)cn3C2CC2)CC1", "values": [
      {"measurement": "MIC", "setting": "Escherichia coli [21]", "value": 0.082, "unit": "µg/mL"},
      {"measurement": "MIC", "setting": "Staphylococcus aureus [22]", "value": 0.167, "unit": "µg/mL"}
    ]},
    {"smiles": "C[C@H](NC(=O)c1cc(=O)[nH]c2ccccc12)C(=O)O", "values": [
      {"measurement": "MIC", "setting": "Enterococcus faecalis", "value": 620, "unit": "µg/mL"},
      {"measurement": "MIC", "setting": "Pseudomonas aeruginosa [23]", "value": 620, "unit": "µg/mL"},
      {"measurement": "MIC", "setting": "Escherichia coli [24]", "value": 620, "unit": "µg/mL"},
      {"measurement": "MIC", "setting": "Staphylococcus aureus [25]", "value": 620, "unit": "µg/mL"}
    ]},
    {"smiles": "COc1c(N2CCN(C(=O)CN3CCN(CC(=O)O)CCN(CC(=O)O)CCN(CC(=O)O)CC3)C(C)C2)c(F)cc2c(=O)c(C(=O)O)cn(C3CC3)c12", "note": "(stereo not drawn)", "values": [
      {"measurement": "MIC", "setting": "Pseudomonas aeruginosa [26]", "value": 3.12, "unit": "µg/mL"},
      {"measurement": "MIC", "setting": "Staphylococcus aureus [27]", "value": 1.56, "unit": "µg/mL"}
    ]}
  ]
}
